Species: Homo sapiens
Test: Inhibition of carbonic anhydrase (unknown origin) relative to sulfanilamide

Row | SMILES | fold change (FC)
1 | Cc1ccccc1S(N)(=O)=O | 1.8
2 | Nc1ccc(S(N)(=O)=O)cc1 | 1
3 | NS(=O)(=O)c1ccc([N+](=O)[O-])cc1 | 23
4 | Nc1cccc(S(N)(=O)=O)c1 | 2.5
5 | NS(=O)(=O)c1ccc(Cl)cc1 | 18
6 | NS(=O)(=O)c1ccccc1 | 4
